Measurements reported in patent publication US5159077A, “Penam antibacterial compounds” (Hoffmann-La Roche Inc., priority 1989, dated 1992).
Structures can show the parent of a compound that is named as a salt. Where two headings read alike, the source gives them in different places.

Legend:
[1] = system: Streptococcus pneumoniae 6301; experiment: In vitro MIC, Broth Dilution Method; format: cell-based; details: Broth Dilution Method; Streptococcus pneumoniae 6301; read-out: In Vitro MIC
Procedure: (§1) The diluted agents prepared in Mueller-Hinton broth were dispensed from a Dynatech MIC 2000 machine, in 100 microliter (μL) volumes into 96 well trays and used immediately or frozen at -10° to -70° C. until needed. Using a Dynatech inoculator and inoculum trays, 1.5 μL of a 10^-2 dilution of an overnight culture was added to each well of the tray. The tops of the trays were then sealed with tape, and the trays were incubated overnight at 37° C. and then examined with a viewer. The lowest concentration at which no growth was observed was considered to be the minimum inhibitory concentration (MIC).

[2] = system: Enterobacter cloacae 5699; experiment: In vitro MIC, Broth Dilution Method; format: cell-based
Procedure: as §1

Serratia marcescens SM [3] = experiment: In vitro MIC, Broth Dilution Method; format: cell-based; details: Broth Dilution Method; Serratia marcescens SM; read-out: In Vitro MIC
Procedure: as §1

Enterobacter cloacae P99 = experiment: In vitro MIC, Broth Dilution Method; format: cell-based; details: P99, read-out: In Vitro MIC
Procedure: as §1

Proteus mirabilis 90 = experiment: In vitro MIC, Broth Dilution Method; format: cell-based
Procedure: as §1

[4] = system: Proteus vulgaris ATCC 6380; experiment: In vitro MIC, Broth Dilution Method; format: cell-based; details: Proteus vulgaris, ATCC6380, read-out: In Vitro MIC
Procedure: as §1

[5] = system: Citrobacter freundii BS-16; experiment: In vitro MIC, Broth Dilution Method; format: cell-based; details: BS16; Broth Dilution Method; Citrobacter freundii BS-16; read-out: In Vitro MIC
Procedure: as §1

[6] = system: Streptococcus faecalis ATCC 29212; experiment: In vitro MIC, Broth Dilution Method; format: cell-based; details: Enterococcus faecalis, ATCC29212; Broth Dilution Method; Streptococcus faecalis ATCC 29212; read-out: In Vitro MIC
Procedure: as §1

Escherichia coli 4 = experiment: In vitro MIC, Broth Dilution Method; format: cell-based
Procedure: as §1

[7] = system: Pseudomonas aeruginosa Stone 130; experiment: In vitro MIC, Broth Dilution Method; format: cell-based
Procedure: as §1

Escherichia coli TEM-1 = experiment: In vitro MIC, Broth Dilution Method; format: cell-based; details: TEM1, read-out: In Vitro MIC
Procedure: as §1

Klebsiella pneumoniae A = experiment: In vitro MIC, Broth Dilution Method; format: cell-based; details: read-out: In Vitro MIC
Procedure: as §1

[8] = system: Pseudomonas aeruginosa ATCC 27853; experiment: In vitro MIC, Broth Dilution Method; format: cell-based; details: ATCC27853; Broth Dilution Method; Pseudomonas aeruginosa ATCC 27853; read-out: In Vitro MIC
Procedure: as §1

[9] = system: Staphylococcus aureus ATCC 29213; experiment: In vitro MIC, Broth Dilution Method; format: cell-based; details: ATCC29213; Broth Dilution Method; Staphylococcus aureus ATCC 29213; read-out: In Vitro MIC
Procedure: as §1

[10] = system: Staphylococcus aureus Smith; experiment: In vitro MIC, Broth Dilution Method; format: cell-based; details: read-out: In Vitro MIC
Procedure: as §1

Proteus mirabilis 2 = experiment: In vitro MIC, Broth Dilution Method; format: cell-based
Procedure: as §1

Streptococcus 82 = experiment: In vitro MIC, Agar Well Diffusion Method; format: cell-based, Streptococcus aureus; details: Agar Well Diffusion Method; Streptococcus aureus 82; read-out: In Vitro MIC
Procedure: (§2) In vitro antimicrobial activity was determined in BBL seed agar. Serial dilutions of the test compound were pipetted into agar wells (80 μL per well). […] For reference, see A. H. Litton, Antibiotics: Assessment of Antimicrobial Activity and Resistance, Academic Press, New York, pages 19-30 (1983).

Serratia marcescens SM [11] = experiment: In vitro MIC, Agar Well Diffusion Method; format: cell-based; details: Agar Well Diffusion Method; Serratia marcescens SM; read-out: In Vitro MIC
Procedure: as §2

[12] = system: Streptococcus faecium ATCC 8043; experiment: In vitro MIC, Agar Well Diffusion Method; format: cell-based; details: Enterococcus faecium, ATCC8043; Agar Well Diffusion Method; Streptococcus faecium ATCC 8043; read-out: In Vitro MIC
Procedure: as §2

Escherichia coli 1269B = experiment: In vitro MIC, Agar Well Diffusion Method; format: cell-based; details: Agar Well Diffusion Method; Escherichia coli 1269B; read-out: In Vitro MIC
Procedure: as §2

[13] = system: Pseudomonas aeruginosa 56; experiment: In vitro MIC, Agar Well Diffusion Method; format: cell-based; details: Agar Well Diffusion Method; Pseudomonas aeruginosa 56; read-out: In Vitro MIC
Procedure: as §2

Pseudomonas aeruginosa B = experiment: In vitro MIC, Agar Well Diffusion Method; format: cell-based; details: Agar Well Diffusion Method; Pseudomonas aeruginosa B; read-out: In Vitro MIC
Procedure: as §2

Proteus vulgaris 101N = experiment: In vitro MIC, Agar Well Diffusion Method; format: cell-based; details: Agar Well Diffusion Method; Proteus vulgaris 101N; read-out: In Vitro MIC
Procedure: as §2

[14] = system: Enterobacter cloacae 2952B; experiment: In vitro MIC, Agar Well Diffusion Method; format: cell-based; details: Agar Well Diffusion Method; Enterobacter cloacae 2952B; read-out: In Vitro MIC
Procedure: as §2

[15] = system: Klebsiella pneumoniae 369; experiment: In vitro MIC, Agar Well Diffusion Method; format: cell-based; details: Agar Well Diffusion Method; Klebsiella pneumoniae 369; read-out: In Vitro MIC
Procedure: as §2

Micrococcus luteus PCl = experiment: In vitro MIC, Agar Well Diffusion Method; format: cell-based; details: Agar Well Diffusion Method; Micrococcus luteus PCl; read-out: In Vitro MIC
Procedure: as §2

[16] = stability of the product (remark in the preparation); format: physicochemical; details: remark on the isolated product
[17] = Broth Dilution Method, Enterobacter cloacae 5699, read-out: In Vitro MIC
[18] = Broth Dilution Method, Proteus mirabilis 90, read-out: In Vitro MIC
[19] = Escherichia coli, 4, read-out: In Vitro MIC
[20] = STONE130, Broth Dilution Method, Pseudomonas aeruginosa Stone 130, read-out: In Vitro MIC
[21] = Proteus mirabilis, 2, read-out: In Vitro MIC
[22] = Broth Dilution Method, Klebsiella pneumoniae A
[23] = Broth Dilution Method, Staphylococcus aureus Smith

SMILES | MIC [1] [µg/mL] | MIC [2, 17] [µg/mL] | MIC (Serratia marcescens SM [3]) [µg/mL] | MIC (Enterobacter cloacae P99) [µg/mL] | MIC [4] [µg/mL] | MIC [5] [µg/mL] | MIC [6] [µg/mL] | MIC (Escherichia coli TEM-1) [µg/mL] | MIC [8] [µg/mL] | MIC [9] [µg/mL] | MIC (Streptococcus 82) [µg/mL] | MIC (Serratia marcescens SM [11]) [µg/mL] | MIC [12] [µg/mL] | MIC (Escherichia coli 1269B) [µg/mL] | MIC [13] [µg/mL] | MIC (Pseudomonas aeruginosa B) [µg/mL] | MIC (Proteus vulgaris 101N) [µg/mL] | MIC [14] [µg/mL] | MIC [15] [µg/mL] | MIC (Micrococcus luteus PCl) [µg/mL] | also measured
CC1(C)S[C@@H]2[C@H](N=CN3CCN(c4c(F)cc5c(=O)c(C(=O)O)cn(CCF)c5c4F)CC3)C(=O)N2[C@H]1C(=O)O [Compound D, 2R-(2α,5α,6β)]-7-[4-[[(2-Carboxy-3,3-dimethyl-7-oxo-4-thia-1-azabicyclo[3.2.0]hept-6-yl)amino]-methylene]-1-piperazinyl]-6,8-difluoro-1-(2-fluoroethyl)-1,4-dihydro-4-dihydro-4-oxo-3-quinoline-carboxylic acid monosodium salt] | 2 | 0.25 | 0.25 | 0.125 | 0.063 | 1 | 32 | 0.125 | 2 | 4 | 3.9 | 31.3 | 15.6 | 1.95 | 7.8 | 15.6 | 1.95 | 7.8 | 7.8 | 15.6 | MIC (Proteus mirabilis 90; [18]): 1 µg/mL; MIC (Escherichia coli 4; [19]): 0.125 µg/mL; MIC [7, 20]: 4 µg/mL; MIC (Klebsiella pneumoniae A; Klebsiella pneumoniae): 0.125 µg/mL; MIC ([10]; Staphylococcus aureus): 0.5 µg/mL; MIC (Proteus mirabilis 2; [21]): 0.125 µg/mL
CCn1cc(C(=O)O)c(=O)c2cc(F)c(N3CCCN(C=N[C@@H]4C(=O)N5[C@@H]4SC(C)(C)[C@@H]5C(=O)O)CC3)cc21 [Compound G, [2S-(2α,5α,6β)]-7-[4-[[)2-Carboxy-3,3-dimethyl-7-oxo-4-thia-1-azabicyclo[3.2.0]hept-6-yl)-imino]methyl]hexahydro-1H-1,4-diazepin-1-yl]-1-ethyl-6-fluoro-1,4-dihydro-4-oxo-3-quinolinecarboxylic acid disodium salt] | 2 | 2 | 2 | 2 | 1 | 8 | 64 | 1 | 16 | 16 | 50 | 50 | > 400 | 50 | 100 | 50 | 50 | 100 | 100 | 25 | MIC (Proteus mirabilis 90; [18]): 8 µg/mL; MIC (Escherichia coli 4; Broth Dilution Method, Escherichia coli 4, read-out: In Vitro MIC): 2 µg/mL; MIC [7, 20]: 8 µg/mL; MIC (Klebsiella pneumoniae A; [22]): 2 µg/mL; MIC [10, 23]: 2 µg/mL; MIC (Proteus mirabilis 2; [21]): 4 µg/mL
CCn1cc(C(=O)O)c(=O)c2cc(F)c(N3CCN(C=N[C@@H]4C(=O)N5[C@@H]4SC(C)(C)[C@@H]5C(=O)O)CC3)nc21 [Compound H, disodium salt] | 2 |  | 0.5 | 0.125 | 0.125 | 0.5 | 8 | 0.125 | 8 | 0.5 | 7.8 | 31.3 | 125 | 7.8 | 15.6 | 15.6 | 7.8 | 31.3 | 7.8 | 31.3 | MIC ([2]; Enterobacter cloacae, 5699, read-out: In Vitro MIC): 0.125 µg/mL; MIC (Proteus mirabilis 90; Proteus mirabilis, 90, read-out: In Vitro MIC): 1 µg/mL; MIC (Escherichia coli 4; [19]): 0.125 µg/mL; MIC ([7]; Pseudomonas aeruginosa, STONE130, read-out: In Vitro MIC): 1 µg/mL; MIC (Klebsiella pneumoniae A; [22]): 0.25 µg/mL; MIC [10, 23]: 0.5 µg/mL; MIC (Proteus mirabilis 2; Broth Dilution Method, Proteus mirabilis 2, read-out: In Vitro MIC): 0.5 µg/mL; stability [16]: very unstable
